# According to patent publication US8404643B2, “Metastin derivatives and use thereof” (priority 2005, dated 2013):
# Numbered stars: 1 amine (or outer) side, 2 acyl side, 3 side chain; on linkers, the order of the positions; unused ones are H or OH. Square brackets hold non-standard residues; d marks the D form. Peptide text beside a SMILES is read from it. Phe(3R-OH) = O=C([C@@H](N[*:1])[C@H](O[*:3])c1ccccc1)[*:2]; Pro(trans-4-F) = O=C(O)[C@@H]1C[C@@H](F)CN1; Phe(3-F) = N[C@@H](Cc1cccc(F)c1)C(=O)O; Phe(3-Me) = Cc1cccc(C[C@H](N)C(=O)O)c1; Phe(4-F) = N[C@@H](Cc1ccc(F)cc1)C(=O)O; Phe(2-F) = N[C@@H](Cc1ccccc1F)C(=O)O; Arg(Me) = CNC(=N)NCCC[C@H](N)C(=O)O; Hyp = O=C(O)[C@@H]1C[C@@H](O)CN1; Aib = CC(C)(N)C(=O)O; azaGly = NNC(=O)O
# Target: T1, hOT7T175 (Homo sapiens, UniProt Q969F8)
# T1 construct: expressed in transfected cells
# T1 sequence (Q969F8 whole entry L364H): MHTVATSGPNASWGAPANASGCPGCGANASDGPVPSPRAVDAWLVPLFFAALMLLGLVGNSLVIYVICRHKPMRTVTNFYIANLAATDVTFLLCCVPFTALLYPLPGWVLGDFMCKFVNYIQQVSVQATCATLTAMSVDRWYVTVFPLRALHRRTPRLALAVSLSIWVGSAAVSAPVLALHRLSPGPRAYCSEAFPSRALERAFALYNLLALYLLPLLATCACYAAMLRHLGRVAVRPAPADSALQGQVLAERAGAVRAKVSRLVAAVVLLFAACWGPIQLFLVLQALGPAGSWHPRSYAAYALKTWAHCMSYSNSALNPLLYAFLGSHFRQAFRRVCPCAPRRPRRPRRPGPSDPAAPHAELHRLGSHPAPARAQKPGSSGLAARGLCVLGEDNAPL
# Test: Assay for intracellular Ca ion level-increasing activity using FLIPR
# Assay type: cell-based
# Conditions: hOT7T175/CHO cells, relative to Metastin (1-54)
# Procedure: In accordance with the method described in JPA 2000-312590, the intracellular Ca ion level-increasing activity was measured using FLIPR.
# The stable expression cell line hOT7T175 was obtained by transfection of the expression plasmid pAK-rOT175 for animal cells into CHO/dhfr^− cells, using CellPhect Transfection Kit (Amersham Pharmacia Biotech, Inc.). First, 240 μL of Buffer A (attached to CellPhect Transfection Kit) was added to 9.6 μg of plasmid DNA dissolved in 240 μL of distilled water followed by stirring. After the mixture was settled for 10 minutes, 480 μL of Buffer B (attached to CellPhect Transfection Kit) was added to the mixture, which was vigorously stirred to form liposomes containing the DNA. Then, 4×10^5 CHO/dhfr^− cells (obtained from ATCC) were inoculated on a 60 mm Petri dish. After culturing the cells in Ham's F-12 medium (Nissui Seiyaku Co., Ltd.) supplemented with 10% fetal bovine serum (BIO WHITTAKER, Inc.) at 37° C. for 2 days in 5% carbon dioxide gas, […] of the liposomes were dropwise added to the cells on the Petri dish. After culturing the cells at 37° C. for 6 hours in 5% carbon dioxide gas, the cells were washed twice with serum-free Ham's F-12 medium and 3 mL of 15% glycerol was added to the cells on the Petri dish followed by treatment for 2 minutes. The cells were again washed twice with serum-free Ham's F-12 medium followed by incubation in Ham's F-12 medium supplemented with 10% fetal bovine serum at 37° C. for 15 hours in 5% carbon dioxide gas. The cells were dispersed by trypsin treatment to recover from the Petri dish. The recovered cells were inoculated on a 6-well plate in 1.25×10^4 cells/well and incubation was initiated at 37° C. in Dulbecco's modified Eagle medium (DMEM) medium (Nissui Seiyaku Co., Ltd.) containing 10% dialyzed fetal bovine serum (JRH BIOSCIENCES, Inc.) in 5% carbon dioxide gas. The plasmid-transfected CHO transformants grew in the medium but the non-transfected cells gradually died, accordingly the medium was exchanged on Days 1 and 2 after the initiation of incubation to remove the cells died. Approximately 20 colonies of the CHO transformants that kept growing on Days 8 to 10 after the incubation were isolated. From the cells in these colonies, cells showing high reactivity with the ligand peptide metastin (hereinafter merely referred to as hOT7T175/CHO) were selected to provide for the following experiment.
# The intracellular Ca ion level-increasing activity of the synthetic peptide in hOT7T175/CHO was determined using FLIPR (Molecular Devices, Inc.).
# hOT7T175/CHO was subcultured in DMEM supplemented with 10% dialyzed fetal bovine serum (hereinafter abbreviated as dFBS) (hereinafter referred to as 10% dFBS/DMEM) and provided for the experiment. The hOT7T175/CHO was suspended in 10% dFBS-DMEM in 15×10^4 cells/ml. The suspension was inoculated on a 96-well plate for FLIPR (Black Plate Clear Bottom, Coster, Inc.) at 200 μl/well (3.0×10^4 cells/200 μL/well), followed by incubation at 37° C. overnight in a 5% CO2 incubator (hereinafter referred to as the cell plate). Then, 21 ml of HANKS/HBSS (9.8 g of HANKS, 0.35 g of sodium hydrogencarbonate, 20 ml of 1M HEPES; after adjusting the pH to 7.4 with 1N sodium hydroxide, the mixture was sterilized by filtration), 210 μl of 250 mM Probenecid and 210 μl of fetal bovine serum (FBS) (HANKS/HBSS-Probenecid-FBS) were mixed.
# Furthermore, 2 vials of Fluo3-AM (50 μg/vial) were dissolved in 21 μL of dimethylsulfoxide and 21 μL of 20% Pluronic acid. The resulting solution was added to and mixed with 10 ml of the HANKS/HBSS-Probenecid-FBS described above. After the culture medium was removed, the mixture was dispensed onto the cell plate in 100 μl each/well, followed by incubation at 37° C. for an hour in a 5% CO2 incubator (pigment loading). The peptide was dissolved in dimethylsulfoxide in 1×10^−3 M. The peptide solution was diluted with HANKS/HBSS containing 2.5 mM Probenecid, 0.2% BSA and 0.1% CHAPS. […]
row,SMILES,Specific Activity: intracellular Ca ion level-increasing activity [specific activity to Metastin (1-54)]
1,"CNC(=N)NCCC[C@H](NC(=O)[C@H](CC(C)C)NC(=O)NNC(=O)[C@H](Cc1cccc(F)c1)NC(=O)[C@@H](NC(=O)[C@H](CC(N)=O)NC(=O)C(C)(C)NC(=O)[C@@H](Cc1ccc(O)cc1)NC(C)=O)[C@@H](C)O)C(=O)N[C@@H](Cc1c[nH]c2ccccc12)C(N)=O [Compound No. 786, Ac-D-Tyr-Aib-Asn-Thr-Phe(3F)-AzaGly-Leu-Arg(Me)-Trp-NH2] (Ac-[dY][Aib]NT[Phe(3-F)][azaGly]L[Arg(Me)]W-NH2)",3.3
2,"CNC(=N)NCCC[C@H](NC(=O)[C@H](CC(C)C)NC(=O)NNC(=O)[C@H](Cc1ccccc1F)NC(=O)[C@@H](NC(=O)[C@H](CC(N)=O)NC(=O)[C@H](CCCCN)NC(=O)[C@@H](Cc1ccc(O)cc1)NC(C)=O)[C@@H](C)O)C(=O)N[C@@H](Cc1c[nH]c2ccccc12)C(N)=O [Compound No. 754, Ac-D-Tyr-Lys-Asn-Thr-Phe(2F)-AzaGly-Leu-Arg(Me)-Trp-NH2] (Ac-[dY]KNT[Phe(2-F)][azaGly]L[Arg(Me)]W-NH2)",3.1
3,"CNC(=N)NCCC[C@H](NC(=O)[C@H](CC(C)C)NC(=O)NNC(=O)[C@H](Cc1ccccc1)NC(=O)[C@@H](NC(=O)[C@H](CCCNC(=N)N)NC(=O)[C@@H]1C[C@@H](O)CN1C(=O)[C@@H](Cc1ccc(O)cc1)NC(C)=O)[C@@H](C)O)C(=O)N[C@@H](Cc1c[nH]c2ccccc12)C(N)=O [Compound No. 861, Ac-D-Tyr-Hyp-Arg-Thr-Phe-AzaGly-Leu-Arg(Me)-Trp-NH2] (Ac-[dY][Hyp]RTF[azaGly]L[Arg(Me)]W-NH2)",1.4
4,"CNC(=N)NCCC[C@H](NC(=O)[C@H](CC(C)C)NC(=O)NNC(=O)[C@H](Cc1ccccc1)NC(=O)[C@@H](NC(=O)CNC(=O)[C@@H]1C[C@@H](O)CN1C(=O)[C@@H](Cc1ccc(O)cc1)NC(C)=O)[C@@H](C)O)C(=O)N[C@@H](Cc1c[nH]c2ccccc12)C(N)=O [Compound No. 862, Ac-D-Tyr-Hyp-Gly-Thr-Phe-AzaGly-Leu-Arg(Me)-Trp-NH2] (Ac-[dY][Hyp]GTF[azaGly]L[Arg(Me)]W-NH2)",0.7
5,"CNC(=N)NCCC[C@H](NC(=O)[C@H](CC(C)C)NC(=O)NNC(=O)[C@@H](NC(=O)[C@@H](NC(=O)[C@H](CC(N)=O)NC(=O)[C@@H]1C[C@@H](O)CN1C(=O)[C@@H](Cc1ccc(O)cc1)NC(C)=O)[C@@H](C)O)[C@H](O)c1ccccc1)C(=O)N[C@@H](Cc1c[nH]c2ccccc12)C(N)=O [Compound No. 877, Ac-D-Tyr-Hyp-Asn-Thr-threo-Ser(3Phenyl)-AzaGly-Leu-Arg(Me)-Trp-NH2] (Ac-[dY][Hyp]NT[Phe(3R-OH)][azaGly]L[Arg(Me)]W-NH2)",1.0
6,"CNC(=N)NCCC[C@H](NC(=O)[C@H](CC(C)C)NC(=O)NNC(=O)[C@H](Cc1cccc(C)c1)NC(=O)[C@@H](NC(=O)[C@H](CC(N)=O)NC(=O)[C@@H]1C[C@@H](O)CN1C(=O)[C@@H](Cc1ccc(O)cc1)NC(C)=O)[C@@H](C)O)C(=O)N[C@@H](Cc1c[nH]c2ccccc12)C(N)=O [Compound No. 872, Ac-D-Tyr-Hyp-Asn-Thr-Phe(3Me)-AzaGly-Leu-Arg(Me)-Trp-NH2] (Ac-[dY][Hyp]NT[Phe(3-Me)][azaGly]L[Arg(Me)]W-NH2)",0.7
7,"CNC(=N)NCCC[C@H](NC(=O)[C@H](CC(C)C)NC(=O)NNC(=O)[C@H](Cc1ccc(F)cc1)NC(=O)[C@@H](NC(=O)[C@H](CC(N)=O)NC(=O)C(C)(C)NC(=O)[C@@H](Cc1ccc(O)cc1)NC(C)=O)[C@@H](C)O)C(=O)N[C@@H](Cc1c[nH]c2ccccc12)C(N)=O [Compound No. 791, Ac-D-Tyr-Aib-Asn-Thr-Phe(4F)-AzaGly-Leu-Arg(Me)-Trp-NH2] (Ac-[dY][Aib]NT[Phe(4-F)][azaGly]L[Arg(Me)]W-NH2)",2.9
8,"CNC(=N)NCCC[C@H](NC(=O)[C@H](CC(C)C)NC(=O)NNC(=O)[C@H](Cc1ccccc1)NC(=O)[C@@H](NC(=O)[C@H](CC(N)=O)NC(=O)[C@H](CCC(=O)O)NC(=O)[C@@H](Cc1ccc(O)cc1)NC(C)=O)[C@@H](C)O)C(=O)N[C@@H](Cc1c[nH]c2ccccc12)C(N)=O [Compound No. 746, Ac-D-Tyr-Glu-Asn-Thr-Phe-AzaGly-Leu-Arg(Me)-Trp-NH2] (Ac-[dY]ENTF[azaGly]L[Arg(Me)]W-NH2)",2.2
9,"CNC(=N)NCCC[C@H](NC(=O)[C@H](CC(C)C)NC(=O)NNC(=O)[C@H](Cc1cccc(F)c1)NC(=O)[C@@H](NC(=O)[C@H](CC(N)=O)NC(=O)[C@H](CCC(=O)O)NC(=O)[C@@H](Cc1ccc(O)cc1)NC(C)=O)[C@@H](C)O)C(=O)N[C@@H](Cc1c[nH]c2ccccc12)C(N)=O [Compound No. 757, Ac-D-Tyr-Glu-Asn-Thr-Phe(3F)-AzaGly-Leu-Arg(Me)-Trp-NH2] (Ac-[dY]ENT[Phe(3-F)][azaGly]L[Arg(Me)]W-NH2)",2.7
10,"CNC(=N)NCCC[C@H](NC(=O)[C@H](CC(C)C)NC(=O)NNC(=O)[C@H](Cc1ccccc1)NC(=O)[C@@H]1C[C@@H](O)CN1C(=O)[C@H](CC(N)=O)NC(=O)[C@@H]1C[C@@H](O)CN1C(=O)[C@@H](Cc1ccc(O)cc1)NC(C)=O)C(=O)N[C@@H](Cc1c[nH]c2ccccc12)C(N)=O [Compound No. 810, Ac-D-Tyr-Hyp-Asn-Hyp-Phe-AzaGly-Leu-Arg(Me)-Trp-NH2] (Ac-[dY][Hyp]N[Hyp]F[azaGly]L[Arg(Me)]W-NH2)",1.5
11,"CNC(=N)NCCC[C@H](NC(=O)[C@H](CC(C)C)NC(=O)NNC(=O)[C@H](Cc1ccccc1)NC(=O)[C@H](C)NC(=O)[C@H](CC(N)=O)NC(=O)[C@@H]1C[C@@H](O)CN1C(=O)[C@@H](Cc1ccc(O)cc1)NC(C)=O)C(=O)N[C@@H](Cc1c[nH]c2ccccc12)C(N)=O [Compound No. 814, Ac-D-Tyr-Hyp-Asn-Ala-Phe-AzaGly-Leu-Arg(Me)-Trp-NH2] (Ac-[dY][Hyp]NAF[azaGly]L[Arg(Me)]W-NH2)",0.5
12,"CNC(=N)NCCC[C@H](NC(=O)[C@H](CC(C)C)NC(=O)NNC(=O)[C@H](Cc1ccccc1)NC(=O)[C@@H](NC(=O)[C@H](CC(N)=O)NC(=O)[C@@H]1C[C@@H](F)CN1C(=O)[C@@H](Cc1ccc(O)cc1)NC(C)=O)[C@@H](C)O)C(=O)N[C@@H](Cc1c[nH]c2ccccc12)C(N)=O [Compound No. 897, Ac-D-Tyr-Pro(4F)-Asn-Thr-Phe-AzaGly-Leu-Arg(Me)-Trp-NH2] (Ac-[dY][Pro(trans-4-F)]NTF[azaGly]L[Arg(Me)]W-NH2)",0.7
13,"CNC(=N)NCCC[C@H](NC(=O)[C@H](CC(C)C)NC(=O)NNC(=O)[C@H](Cc1ccccc1)NC(=O)[C@@H](NC(=O)[C@H](CC(N)=O)NC(=O)[C@@H](NC(=O)[C@@H](Cc1ccc(O)cc1)NC(C)=O)[C@@H](C)O)[C@@H](C)O)C(=O)N[C@@H](Cc1c[nH]c2ccccc12)C(N)=O [Compound No. 772, Ac-D-Tyr-Thr-Asn-Thr-Phe-AzaGly-Leu-Arg(Me)-Trp-NH2] (Ac-[dY]TNTF[azaGly]L[Arg(Me)]W-NH2)",1.3
